This is an account of results in US20240050466A1, “CELLULAR HEALTH NUTRITIONAL PRODUCT” (GLAXOSMITHKLINE CONSUMER HEALTHCARE HOLDINGS (US) LLC, priority 2020, published 2024).

Data set [1] can be described thus: Summary of bioefficacy, plausibility and criticality of micronutrients in F2. The following applies: grade Low/medium/High, key not given. From the text:
Summary Table of Bioefficacy, Plausibility and Criticality of Micronutrients in F2

Data set [2] relates to gene expression. The following applies: hesperidin intake in humans; cited from earlier work.
The conditions of data set [3]: cited from earlier work.
For data set [4] the following is noted: in vivo, cited from earlier work.

For `NCCC(=O)N[C@@H](Cc1cnc[nH]1)C(=O)O` [Carnosine, L-Carnosine], the Bioefficacy entry in data set [1] was “Low”.
In the case of `COc1ccc([C@@H]2CC(=O)c3c(O)cc(O[C@@H]4O[C@H](CO[C@@H]5O[C@@H](C)[C@H](O)[C@@H](O)[C@H]5O)[C@@H](O)[C@H](O)[C@H]4O)cc3O2)cc1O` [Hesperidin, hesperidin], in data set [1], the Bioefficacy entry was “medium”. The “number of genes whose expression is modulated” value in data set [2] is given as “about 1,819 genes”.
For the compound `CC1=C[C@H](O)CC(C)(C)[C@H]1/C=C/C(C)=C/C=C/C(C)=C/C=C/C=C(C)/C=C/C=C(C)/C=C/C1=C(C)C[C@@H](O)CC1(C)C` [Lutein, trans-lutein], in data set [1], the Bioefficacy entry is reported as “medium”.
On the same count and under the same terms, under `CC(C)=CCC/C(C)=C/C=C/C(C)=C/C=C/C(C)=C/C=C/C=C(C)/C=C/C=C(C)/C=C/C=C(\C)CCC=C(C)C` [Lycopene, lycopene] stands “High”.
Turning to `CC(=O)Oc1c(C)c(C)c2c(c1C)CCC(C)(CCC[C@H](C)CCC[C@H](C)CCCC(C)C)O2` (stereo partly drawn) [RRRDL-alpha-Tocopherol Acetate], the “safe upper limit for adults” value in data set [3] is 273 mg/day.
For the compound `C[Se]CC[C@H](N)C(=O)O` [Selenium, selenomethionine], in data set [1], the Bioefficacy result is recorded as “medium”. For the same compound, the “reference dose (RfD) or NOAEL for Se” value in data set [4] (human) was 350 µg/day. Further, the “reference dose (RfD) or NOAEL for Se per body weight” value in data set [4] is recorded as 5 ug Se/(kg body per day).
As to `O=C1O[C@H]([C@@H](O)CO)C(O)=C1O` [Vitamin C, ascorbic acid], in data set [1], the Bioefficacy entry is listed as “medium”.
In the case of Vitamin E, in data set [1], the Bioefficacy result is reported as “Low”.
